Data: the supplement of paper PMC10307832

Compound: CCOC1=CC=CC=C1N=NC2=C(NN(C2=O)C3=NC(=CS3)C4=CC=CC=C4)C [BAM7] + CS(=O)(=O)CCNCc1ccc(-c2ccc3ncnc(Nc4ccc(OCc5cccc(F)c5)c(Cl)c4)c3c2)o1 [Lapatinib] (partner 2 µM)
Assay: relative viability (nuclei count vs DMSO), 5 days (fraction); higher = more cells survive
Conditions: first compound 50 µM
Outline: (§1)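 The day after seeding in 1536-well plates, lung cancer cell lines were treated by pin tool with a single drug, or with a fixed anchor-drug dose together with five library-drug doses (not always all listed) in √10 steps. After 5 days, a combined fix-and-stain solution (final 0.05% Triton X-100, 1% formaldehyde, 1 ug/ml Hoechst) was added. Nuclei counted on 4× images gave relative viability as treated counts over vehicle counts, reported as the median of duplicate plates.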

Point of comparison: NCI-H1975, relative viability 0.819. Against it:
- EPLC-272H — higher, 0.963
- NCI-H2228 — higher, 1.1
- NCI-H1792 — higher, 0.842
- NCI-H1355 — higher, 1.02
- NCI-H3122 — higher, 1.03
- NCI-H1437 — lower, 0.68
- NCI-H1755 — higher, 0.979
- NCI-H2023 — higher, 1.09
- HCC-15 — higher, 0.865
- PC-14 — lower, 0.351
- EKVX — lower, 0.507
- LC-2-ad — higher, 0.859
- NCI-H1563 — higher, 1.05
- NCI-H1944 — higher, 0.954

Compound: CCOC1=CC=CC=C1N=NC2=C(NN(C2=O)C3=NC(=CS3)C4=CC=CC=C4)C [BAM7] + C[C@]1(O)C[C@@H](c2nc(-c3ccc4ccc(-c5ccccc5)nc4c3)c3c(N)nccn32)C1 [Linsitinib] (partner 1 µM)
Assay: as above
Conditions: first compound 0.5 µM
Outline: as §1

Point of comparison: HCC-15, relative viability 0.914. Against it:
- LCLC-97TM1 — lower, 0.174
- NCI-H2009 — higher, 1.27
- A-427 — higher, 1.14
- NCI-H661 — lower, 0.672
- NCI-H1734 — higher, 0.946
- NCI-H460 — higher, 1.02
- NCI-H2347 — higher, 0.983
- SK-LU-1 — higher, 0.969
- 201T — higher, 1.04
- NCI-H1915 — higher, 1.08
- HCC-827 — higher, 0.957
- LXF-289 — higher, 1.02
- NCI-H23 — lower, 0.507
- NCI-H647 — higher, 1.27
- CAL-12T — higher, 0.929
- NCI-H1651 — higher, 1.05
- EPLC-272H — higher, 1.45
- NCI-H2228 — lower, 0.674
- NCI-H1792 — lower, 0.64
- NCI-H1355 — lower, 0.89
- NCI-H3122 — higher, 0.969
- NCI-H1437 — higher, 1.03
- NCI-H1755 — higher, 1.01
- NCI-H2023 — lower, 0.657
- PC-14 — higher, 0.984
- EKVX — higher, 1.05
- LC-2-ad — lower, 0.856
- NCI-H1563 — higher, 1.22
- NCI-H1944 — higher, 1.3
- NCI-H1975 — lower, 0.847

Same assay, conditions: first compound 5 µM

Point of comparison: NCI-H2023, relative viability 0.689. Against it:
- LCLC-97TM1 — lower, 0.184
- NCI-H2009 — higher, 1.2
- A-427 — higher, 1.1
- NCI-H661 — lower, 0.605
- NCI-H1734 — higher, 1.07
- NCI-H460 — higher, 0.765
- NCI-H2347 — higher, 1.18
- SK-LU-1 — higher, 1.21
- 201T — higher, 1.09
- NCI-H1915 — higher, 1.2
- HCC-827 — higher, 0.912
- LXF-289 — higher, 1.04
- NCI-H23 — lower, 0.663
- NCI-H647 — higher, 1.32
- CAL-12T — higher, 0.743
- NCI-H1651 — higher, 1.09
- EPLC-272H — higher, 1.11
- NCI-H2228 — higher, 0.789
- NCI-H1792 — lower, 0.54
- NCI-H1355 — higher, 0.823
- NCI-H3122 — higher, 1.08
- NCI-H1437 — higher, 0.959
- NCI-H1755 — higher, 1.06
- HCC-15 — higher, 0.905
- PC-14 — higher, 1.04
- EKVX — higher, 1.04
- LC-2-ad — higher, 0.898
- NCI-H1563 — higher, 1.19
- NCI-H1944 — higher, 1.36
- NCI-H1975 — higher, 0.981

Same assay, conditions: first compound 15.81 µM

Point of comparison: LC-2-ad, relative viability 0.812. Against it:
- LCLC-97TM1 — lower, 0.176
- NCI-H2009 — higher, 1.15
- A-427 — higher, 1.05
- NCI-H661 — lower, 0.433
- NCI-H1734 — higher, 0.821
- NCI-H460 — lower, 0.653
- NCI-H2347 — higher, 0.971
- SK-LU-1 — higher, 1.22
- 201T — higher, 0.963
- NCI-H1915 — higher, 1.08
- HCC-827 — higher, 0.905
- LXF-289 — higher, 0.955
- NCI-H23 — lower, 0.698
- NCI-H647 — higher, 1.13
- CAL-12T — lower, 0.75
- NCI-H1651 — higher, 1.01
- EPLC-272H — higher, 1.33
- NCI-H2228 — lower, 0.554
- NCI-H1792 — lower, 0.542
- NCI-H1355 — lower, 0.729
- NCI-H3122 — higher, 1
- NCI-H1437 — higher, 0.922
- NCI-H1755 — higher, 1.02
- NCI-H2023 — lower, 0.64
- HCC-15 — higher, 0.859
- PC-14 — higher, 0.953
- EKVX — lower, 0.729
- NCI-H1563 — higher, 1.13
- NCI-H1944 — higher, 1.13

Same assay, conditions: first compound 50 µM

Point of comparison: NCI-H1755, relative viability 0.978. Against it:
- LCLC-97TM1 — lower, 0.179
- NCI-H2009 — higher, 1.16
- A-427 — higher, 1.14
- NCI-H661 — lower, 0.601
- NCI-H1734 — lower, 0.937
- NCI-H460 — lower, 0.754
- NCI-H2347 — higher, 0.982
- SK-LU-1 — higher, 1.21
- 201T — higher, 1.03
- NCI-H1915 — higher, 1.1
- HCC-827 — lower, 0.881
- LXF-289 — lower, 0.962
- NCI-H23 — lower, 0.679
- NCI-H647 — higher, 1.12
- CAL-12T — lower, 0.852
- NCI-H1651 — higher, 1.02
- EPLC-272H — higher, 1.24
- NCI-H2228 — lower, 0.842
- NCI-H1792 — lower, 0.628
- NCI-H1355 — lower, 0.792
- NCI-H3122 — higher, 1.02
- NCI-H1437 — higher, 0.993
